Results on four compounds are retold here after patent publication US8487103B2 (Roche Palo Alto LLC, priority 2009, dated 2013).

One series has as its system HCV. To be noted: cited from earlier work.
Another series can be described thus: in vitro. The settings on record: human.
Series [1] concerns HCV replicon cells (2209-23), genotype 1b replicon. The experiment in a line: HCV Replicon Assay (Renilla luciferase reporter). Format: cell-based, HCV genotype 1b. The settings on record: Hepatitis C virus, 72 h; cell line 2209-23, luciferase activity after three days.
Series [2] deals with T1, HCV polymerase (NS5B570n-Con1) (Hepatitis C virus genotype 1b, UniProt Q9WMX2).
T1 construct: contains a 21 amino acid deletion at the C-terminus relative to the full-length HCV polymerase; 6-histidine (N); made in house; host or cells: E. coli BL21(DE) pLysS, plasmid pET 17b
Briefly: HCV NS5B RNA Polymerase Activity. Format: biochemical, HCV Con1 strain. The procedure:
The enzymatic activity of HCV polymerase (NS5B570n-Con1) was measured as the incorporation of radiolabeled nucleotide monophosphates into acid insoluble RNA products. Unincorporated radiolabeled substrate was removed by filtration and scintillant was added to the washed and dried filter plate containing radiolabeled RNA product. The amount of RNA product generated by NS5B570-Con1 at the end of the reaction was directly proportional to the amount of light emitted by the scintillant.
The N-terminal 6-histidine tagged HCV polymerase, derived from HCV Con1 strain, genotype 1b (NS5B570n-Con1) contains a 21 amino acid deletion at the C-terminus relative to the full-length HCV polymerase and was purified from E. coli strain BL21(DE) pLysS. The construct, containing the coding sequence of HCV NS5B Con1 (GenBank accession number AJ242654) was inserted into the plasmid construct pET 17b, downstream of a T7 promoter expression cassette and transformed into E. coli. A single colony was grown overnight as a starter culture and later used inoculate 10 L of LB media supplemented with 100 μg/mL ampicillin at 37° C. Protein expression was induced by the addition of 0.25 mM isopropyl-β-D-thiogalactopyranoside (IPTG) when optical density at […] of the culture was between 0.6 and 0.8 and cells were harvested after 16 to 18 h at 30° C. NS5B570n-Con1 was purified to homogeneity using a three-step protocol including subsequent column chromatography on Ni-NTA, SP-Sepharose HP and Superdex 75 resins.
Each 50 μL enzymatic reaction contained 20 nM RNA template derived from the complementary sequence of the Internal Ribosome Entry Site (cIRES), 20 nM NS5B570n-Con1 enzyme, 0.5 μCi of tritiated UTP (Perkin Elmer catalog no. TRK-412; specific activity: 30 to 60 Ci/mmol; stock solution concentration from 7.5×10^−5 M to 20.6×10^−6 M), 1 μM each ATP, CTP, and GTP, 40 mM Tris-HCl pH 8.0, 40 mM NaCl, 4 mM DTT (dithiothreitol), 4 mM MgCl2, and 5 μl of compound serial diluted in DMSO. Reaction mixtures were assembled in 96-well filter plates (cat #MADVN0B, Millipore Co.) and incubated for 2 h at 30° C. Reactions were stopped by addition of 10% final (v/v) trichloroacetic acid and incubated for 40 min at 4° C. Reactions were filtered, washed with 8 reaction volumes of 10% (v/v) trichloroacetic acetic acid, 4 reaction volumes of 70% (v/v) ethanol, air dried, and 25 μl of scintillant (Microscint 20, Perkin-Elmer) was added to each reaction well.
The amount of light emitted from the scintillant was converted to counts per minute (CPM) on a Topcount® plate reader (Perkin-Elmer, Energy Range: Low, Efficiency Mode Normal, Count Time: 1 min, Background Subtract: none, Cross talk reduction: Off).
Data was analyzed in Excel® (Microsoft) and ActivityBase® (Idbs®). The reaction in the absence of enzyme was used to determine the background signal, which was subtracted from the enzymatic reactions. Positive control reactions were performed in the absence of compound, from which the background corrected activity was set as 100% polymerase activity. All data was expressed as a percentage of the positive control. The compound concentration at which the enzyme-catalyzed rate of RNA synthesis was reduced by 50% (IC50) was calculated by fitting equation (i) to the data where“Y”
[formula] corresponds to the relative enzyme activity (in %), “% Min” is the residual relative activity at saturating compound concentration, “% Max” is the relative maximum enzymatic activity, “X” corresponds to the compound concentration, and “S” is the Hill coefficient (or slope).

For the compound `NC(=O)c1ncn([C@@H]2O[C@H](CO)[C@@H](O)[C@H]2O)n1` [ribavirin, 1-((2R,3R,4S,5R)-3,4-Dihydroxy-5-hydroxymethyl-tetrahydro-furan-2-yl)-1H-[1,2,4]triazole-3-carboxylic acid amide], the “serum amino transferase levels reduced to normal, share of patients” value with HCV (monotherapy) is reported as 40%. For the same compound, the “effect on serum HCV-RNA” value in the series with HCV (sole treatment / monotherapy) was “does not lower serum levels of HCV-RNA”.

With `COc1c(C(C)(C)C)cc(-c2ccc[nH]c2=O)c2ncc(N3CC[C@H](CNS(C)(=O)=O)C3)cc12` [Compound I-18, N-{(S)-1-[6-tert-Butyl-5-methoxy-8-(2-oxo-1,2-dihydro-pyridin-3-yl)-quinolin-3-yl]-pyrrolidin-3-ylmethyl}-methanesulfonamide], the melting point (usually the temperature of the solid-liquid transition) fell in the range of 275 to 280 °C. The same compound registered a CC50 at 3 days in “in vitro” of 30.3 µM. Further, the IC50 (usually the concentration needed to halve the response being measured) in series [1] was 5.2 nM. In addition, in series [2], the IC50 came out at 0.2 nM.

Regarding `Cc1ccc(-c2nc(C(C)(C)C)cc3cc(-c4ccc(NS(C)(=O)=O)cc4)ccc23)c(=O)[nH]1` [Compound I-48, N-{4-[3-tert-Butyl-1-(6-methyl-2-oxo-1,2-dihydro-pyridin-3-yl)-isoquinolin-6-yl]-phenyl}-methanesulfonamide], half-maximal inhibition in series [1] (IC50) required 27.4 nM.

`COc1c(C(C)(C)C)cc(-n2ccc(=O)[nH]c2=O)c2ncc(-c3ccc(NS(C)(=O)=O)cc3)cc12` [Compound I-21, N-{4-[6-tert-Butyl-8-(2,4-dioxo-3,4-dihydro-2H-pyrimidin-1-yl)-5-methoxy-quinolin-3-yl]-phenyl}-methanesulfonamide] displayed a melting point of 277 to 281 °C. In series [1], the IC50 stood at 0.3 nM. For the same compound, the IC50 in series [2] was 2.2 nM.
